Results on 29 compounds are retold here after patent publication US20240239752A1, “BICYCLIC HETEROAROMATIC INHIBITORS OF KLK5” (BioCryst Pharmaceuticals, Inc., priority 2021, published 2024).

The target in the test is T1, recombinant human KLK5 (Homo sapiens, UniProt Q9Y337).
T1 construct: purchased Novoprotein or R&D Systems C415 or 1108-SE
T1 sequence (Q9Y337 23-293): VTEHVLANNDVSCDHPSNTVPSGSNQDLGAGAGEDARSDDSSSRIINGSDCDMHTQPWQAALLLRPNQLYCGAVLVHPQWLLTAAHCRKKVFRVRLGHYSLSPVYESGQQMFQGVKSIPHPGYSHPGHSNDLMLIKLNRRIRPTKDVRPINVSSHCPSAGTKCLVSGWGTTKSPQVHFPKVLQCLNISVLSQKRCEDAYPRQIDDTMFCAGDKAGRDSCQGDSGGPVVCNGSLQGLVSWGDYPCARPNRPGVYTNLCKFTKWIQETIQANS
The test can be described thus: Kallikrein (KLK) 5 enzymatic assay (Boc-VPR-AMC fluorogenic substrate). Type of test: biochemical. As to conditions: recombinant human KLK5 0.1 μg/well, Boc-VPR-AMC 100 μM, pH 7.5, room temperature, 1% DMSO; tested a minimum of three times. In short, it runs like this:
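Recombinant human KLK5 (0.1 μg/well) was preincubated with compound at room temperature in 0.1 M NaH2PO4, pH 7.5, 1% DMSO, then started with 100 μM Boc-VPR-AMC. The rate was followed at 380/460 nm, and IC50 came from percent inhibition relative to enzyme alone, with at least three runs.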
`Nc1nccc2c(-c3ccc4nn(C5CC(N)C5)c(COc5ccccc5CC(=O)O)c4c3)cccc12` (centres unmarked) [Compound 136b, 2-(2-((2-(3-aminocyclobutyl)-5-(1-aminoisoquinolin-5-yl)-2H-indazol-3-yl)methoxy)phenyl)acetic acid]: the half-maximal inhibitory concentration (IC50) was 1000 to 10000 nM.
The figure for `CC(C)(C)OC(=O)NC1CC(n2nc3ccc(-c4ccc5ccnc(N)c5c4)cc3c2COc2ccccc2CC(=O)O)C1` (centres unmarked) [Compound 137b, 2-(2-((5-(1-aminoisoquinolin-7-yl)-2-(3-(tert-butoxycarbonylamino)cyclobutyl)-2H-indazol-3-yl)methoxy)phenyl)acetic acid] is 1000 to 10000 nM; for `Nc1nccc2ccc(-c3ccc4nn(C5CC(N)C5)c(COc5ccccc5CC(=O)O)c4c3)cc12` (centres unmarked) [Compound 138b, 2-(2-((2-(3-aminocyclobutyl)-5-(1-aminoisoquinolin-7-yl)-2H-indazol-3-yl)methoxy)phenyl)acetic acid] it is 1000 to 10000 nM; for `CC(C)(C)OC(=O)N1CC(Cn2nc3ccc(-c4cccc5c(N)nccc45)cc3c2COc2ccccc2CC(=O)O)C1` [Compound 139f, 2-(2-((5-(1-aminoisoquinolin-5-yl)-2-((1-(tert-butoxycarbonyl)azetidin-3-yl)methyl)-2H-indazol-3-yl)methoxy)phenyl)acetic acid] it is less than 1000 nM.
The figure for `Nc1nccc2c(-c3ccc4nn(CC5CNC5)c(COc5ccccc5CC(=O)O)c4c3)cccc12` [Compound 140b, 2-(2-((5-(1-aminoisoquinolin-5-yl)-2-(azetidin-3-ylmethyl)-2H-indazol-3-yl)methoxy)phenyl)acetic acid] is 1000 to 10000 nM; for `CC(C)(C)OC(=O)N1CC(Cn2nc3ccc(-c4ccc5ccnc(N)c5c4)cc3c2COc2ccccc2CC(=O)O)C1` [Compound 141b, 2-(2-((5-(1-aminoisoquinolin-7-yl)-2-((1-(tert-butoxycarbonyl)azetidin-3-yl)methyl)-2H-indazol-3-yl)methoxy)phenyl)acetic acid] it is 1000 to 10000 nM; for `CC(C)(C)OC(=O)N1CC(n2nc(COc3ccccc3CC(=O)O)c3cc(-c4cccc5c(N)nccc45)ccc32)C1` [Compound 142b, 2-(2-((5-(1-aminoisoquinolin-5-yl)-1-(1-(tert-butoxycarbonyl)azetidin-3-yl)-1H-indazol-3-yl)methoxy)phenyl)acetic acid] it is less than 1000 nM.
`COCCN1CC(n2nc(COc3ccccc3CC(=O)O)c3cc(-c4cccc5c(N)nccc45)ccc32)C1` [Compound 143d, 2-(2-((5-(1-aminoisoquinolin-5-yl)-1-(1-(2-methoxyethyl)azetidin-3-yl)-1H-indazol-3-yl)methoxy)phenyl)acetic acid]: the half-maximal inhibitory concentration (IC50) is less than 1000 nM.
The figure for `CC(C)CCN1CC(n2nc(COc3ccccc3CC(=O)O)c3cc(-c4cccc5c(N)nccc45)ccc32)C1` [Compound 144c, 2-(2-((5-(1-aminoisoquinolin-5-yl)-1-(1-isopentylazetidin-3-yl)-1H-indazol-3-yl)methoxy)phenyl)acetic acid] is less than 1000 nM; for `COCCN1CC(n2nc(COc3ccccc3CC(=O)O)c3cc(-c4ccc5ccnc(N)c5c4)ccc32)C1` [Compound 145b, 2-(2-((5-(1-aminoisoquinolin-7-yl)-1-(1-(2-methoxyethyl)azetidin-3-yl)-1H-indazol-3-yl)methoxy)phenyl)acetic acid] it is less than 1000 nM.
The figure for `CC(C)CCN1CC(n2nc(COc3ccccc3CC(=O)O)c3cc(-c4ccc5ccnc(N)c5c4)ccc32)C1` [Compound 146b, 2-(2-((5-(1-aminoisoquinolin-7-yl)-1-(1-isopentylazetidin-3-yl)-1H-indazol-3-yl)methoxy)phenyl)acetic acid] is less than 1000 nM; for `Nc1nccc2c(-c3ccc4c(c3)c(COc3ccccc3CC(=O)O)nn4C3CN(CCO)C3)cccc12` [Compound 147c, 2-(2-((5-(1-aminoisoquinolin-5-yl)-1-(1-(2-hydroxyethyl)azetidin-3-yl)-1H-indazol-3-yl)methoxy)phenyl)acetic acid] it is less than 1000 nM; for `Nc1nccc2ccc(-c3ccc4c(c3)c(COc3ccccc3CC(=O)O)nn4C3CN(CCO)C3)cc12` [Compound 148b, 2-(2-((5-(1-aminoisoquinolin-7-yl)-1-(1-(2-hydroxyethyl)azetidin-3-yl)-1H-indazol-3-yl)methoxy)phenyl)acetic acid] it is less than 1000 nM.
For the compound `Nc1nccc2ccc(-c3ccc4nn(C5CCC5)c(COc5cc(F)ccc5CC(=O)O)c4c3)cc12` [Compound 149d, 2-(2-((5-(1-aminoisoquinolin-7-yl)-2-cyclobutyl-2H-indazol-3-yl)methoxy)-4-fluorophenyl)acetic acid], the half-inhibitory concentration (IC50) lay within 1000 to 10000 nM.
Take `Nc1nccc2c(-c3ccc4nn(C5CCC5)c(COc5cc(F)ccc5CC(=O)O)c4c3)cccc12` [Compound 150b, 2-(2-((5-(1-aminoisoquinolin-5-yl)-2-cyclobutyl-2H-indazol-3-yl)methoxy)-4-fluorophenyl)acetic acid]: the IC50 was less than 1000 nM.
The figure for `Nc1nccc2ccc(-c3ccc4nn(C5CCC5)c(COc5cc(C(F)(F)F)ccc5CC(=O)O)c4c3)cc12` [Compound 151d, 2-(2-((5-(1-aminoisoquinolin-7-yl)-2-cyclobutyl-2H-indazol-3-yl)methoxy)-4-(trifluoromethyl)phenyl)acetic acid] is more than 10000 nM.
The value for `Nc1nccc2c(-c3ccc4nn(C5CCC5)c(COc5cc(C(F)(F)F)ccc5CC(=O)O)c4c3)cccc12` [Compound 152b, 2-(2-((5-(1-aminoisoquinolin-5-yl)-2-cyclobutyl-2H-indazol-3-yl)methoxy)-4-(trifluoromethyl)phenyl)acetic acid] was 1000 to 10000 nM; that for `Nc1nccc2ccc(-c3ccc4nn(C5CCC5)c(COc5cc(OC(F)(F)F)ccc5CC(=O)O)c4c3)cc12` [Compound 153d, 2-(2-((5-(1-aminoisoquinolin-7-yl)-2-cyclobutyl-2H-indazol-3-yl)methoxy)-4-(trifluoromethoxy)phenyl)acetic acid] was more than 10000 nM.
On to `Nc1nccc2c(-c3ccc4nn(C5CCC5)c(COc5cc(OC(F)(F)F)ccc5CC(=O)O)c4c3)cccc12` [Compound 154b, 2-(2-((5-(1-aminoisoquinolin-5-yl)-2-cyclobutyl-2H-indazol-3-yl)methoxy)-4-(trifluoromethoxy)phenyl)acetic acid], for which the half-maximal inhibitory concentration (IC50) fell in the range of 1000 to 10000 nM.
The figure for `Cc1ccc(OCc2c3cc(-c4ccc5ccnc(N)c5c4)ccc3nn2C2CCC2)c(CC(=O)O)c1` [Compound 155d, 2-(2-((5-(1-aminoisoquinolin-7-yl)-2-cyclobutyl-2H-indazol-3-yl)methoxy)-5-methylphenyl)acetic acid] is 1000 to 10000 nM; for `Cc1ccc(OCc2c3cc(-c4cccc5c(N)nccc45)ccc3nn2C2CCC2)c(CC(=O)O)c1` [Compound 156b, 2-(2-((5-(1-aminoisoquinolin-5-yl)-2-cyclobutyl-2H-indazol-3-yl)methoxy)-5-methylphenyl)acetic acid] it is 1000 to 10000 nM.
For `COc1ccc(OCc2c3cc(-c4ccc5ccnc(N)c5c4)ccc3nn2C2CCC2)c(CC(=O)O)c1` [Compound 157d, 2-(2-((5-(1-aminoisoquinolin-7-yl)-2-cyclobutyl-2H-indazol-3-yl)methoxy)-5-methoxyphenyl)acetic acid], the IC50 fell in the range of 1000 to 10000 nM.
The value for `COc1ccc(OCc2c3cc(-c4cccc5c(N)nccc45)ccc3nn2C2CCC2)c(CC(=O)O)c1` [Compound 158b, 2-(2-((5-(1-aminoisoquinolin-5-yl)-2-cyclobutyl-2H-indazol-3-yl)methoxy)-5-methoxyphenyl)acetic acid] was 1000 to 10000 nM; that for `Cc1cccc(CC(=O)O)c1OCc1nn(C2CCC2)c2ccc(-c3ccc4ccnc(N)c4c3)cc12` [Compound 159g, 2-(2-((5-(1-aminoisoquinolin-7-yl)-1-cyclobutyl-1H-indazol-3-yl)methoxy)-3-methylphenyl)acetic acid] was 1000 to 10000 nM; that for `Cc1cccc(CC(=O)O)c1OCc1nn(C2CCC2)c2ccc(-c3cccc4c(N)nccc34)cc12` [Compound 160b, 2-(2-((5-(1-aminoisoquinolin-5-yl)-1-cyclobutyl-1H-indazol-3-yl)methoxy)-3-methylphenyl)acetic acid] was 1000 to 10000 nM.
With `Cc1cccc(OCc2nn(C3CCC3)c3ccc(-c4ccc5ccnc(N)c5c4)cc23)c1CC(=O)O` [Compound 161c, 2-(2-((5-(1-aminoisoquinolin-7-yl)-1-cyclobutyl-1H-indazol-3-yl)methoxy)-6-methylphenyl)acetic acid], the 50% inhibitory concentration (IC50) was less than 1000 nM.
The figure for `Cc1cccc(OCc2nn(C3CCC3)c3ccc(-c4cccc5c(N)nccc45)cc23)c1CC(=O)O` [Compound 162b, 2-(2-((5-(1-aminoisoquinolin-5-yl)-1-cyclobutyl-1H-indazol-3-yl)methoxy)-6-methylphenyl)acetic acid] is less than 1000 nM; for `Cc1ccc(CC(=O)O)c(OCc2nn(C3CCC3)c3ccc(-c4cccc5c(N)nccc45)cc23)c1` [Compound 163c, 2-(2-((5-(1-aminoisoquinolin-5-yl)-1-cyclobutyl-1H-indazol-3-yl)methoxy)-4-methylphenyl)acetic acid] it is less than 1000 nM; for `Cc1ccc(OCc2nn(C3CCC3)c3ccc(-c4ccc5ccnc(N)c5c4)cc23)c(CC(=O)O)c1` [Compound 164c, 2-(2-((5-(1-aminoisoquinolin-7-yl)-1-cyclobutyl-1H-indazol-3-yl)methoxy)-5-methylphenyl)acetic acid] it is 1000 to 10000 nM.

Broadly, the IC50 is the concentration needed to halve the response being measured.
